Data taken from PMC8733726, “Dioctanoyl Ultrashort Tetrabasic β-Peptides Sensitize Multidrug-Resistant Gram-Negative Bacteria to Novobiocin and Rifampicin” (Frontiers in Microbiology, 2021).
In brackets after ≈: the same amount, converted by molar mass. Read-outs that look alike come from different tables or passages of the source.

What was measured:
[1] = test system: MDR E. cloacae clinical isolates; assay: Resistance phenotype (MICs of antibiotics) of MDR clinical isolates; format: cell-based, Enterobacter cloacae; settings: Enterobacter cloacae, read-out: MIC
[2] = test system: wild-type A. baumannii ATCC 17978; assay: Checkerboard assay; format: cell-based, Acinetobacter baumannii; settings: ATCC 17978; for MICcombo: antibiotic with dUSTBβP 3 at 8 μg/mL; for MIC: Acinetobacter baumannii, ATCC17978, 18 h, antibiotic alone (Supplementary Table 7), read-out: MICantibiotic
Source text: (§1) Overnight-grown bacterial culture diluted in saline to 0.5 McFarland turbidity was successively diluted 1:50 in MHB to achieve a final concentration of 5 × 10^5 CFU/mL for inoculation. The antibiotic and adjuvant were serially diluted 2-fold along the x-axis and y-axis, respectively, resulting in varying concentrations of both agents in each well. […] Confirmation of turbidity was done using an EMax Plus microplate reader (Molecular Devices, United States) at a wavelength of 590 nm. Wells comprising MHB alone or in the presence of bacterial cells were used as negative or positive controls, respectively. Fractional inhibitory concentration index (FICI) is determined by adding the FICs of both antibiotic and adjuvant. The FIC of the antibiotic is calculated by dividing the MIC of the antibiotic in the presence of the adjuvant by the MIC of the antibiotic alone. Similarly, the FIC of the adjuvant is calculated by dividing the MIC of the adjuvant in the presence of the antibiotic by the MIC of the adjuvant alone.

[3] = test system: wild-type E. coli ATCC 25922; assay: microbe, parasite or virus in culture; format: cell-based, Escherichia coli; settings: ATCC 25922; for MICcombo: antibiotic with dUSTBβP 3 at 8 μg/mL; for MIC: Escherichia coli, ATCC25922, 18 h, antibiotic alone (Supplementary Table 7), read-out: MICantibiotic
Method: The adjuvant activities of dUSTBβPs were evaluated using checkerboard assay as previously described ([Berry et al., 2019]). Overnight-grown bacterial culture diluted in saline to 0.5 McFarland turbidity was successively diluted 1:50 in MHB to achieve a final concentration of 5 × 10^5 CFU/mL for inoculation. The antibiotic and adjuvant were serially diluted 2-fold along the x-axis and y-axis, respectively, resulting in varying concentrations of both agents in each well. Subsequently, the 96-well plate was incubated with equal volumes of bacterial inoculum at 37°C for 18 h. Confirmation of turbidity was done using an EMax Plus microplate reader (Molecular Devices, United States) at a wavelength of 590 nm. Wells comprising MHB alone or in the presence of bacterial cells were used as negative or positive controls, respectively. Fractional inhibitory concentration index (FICI) is determined by adding the FICs of both antibiotic and adjuvant. The FIC of the antibiotic is calculated by dividing the MIC of the antibiotic in the presence of the adjuvant by the MIC of the antibiotic alone. Similarly, the FIC of the adjuvant is calculated by dividing the MIC of the adjuvant in the presence of the antibiotic by the MIC of the adjuvant alone. FICI ≤ 0.5, 0.5 < x ≤ 4, and >4 were deemed synergistic, additive, and antagonistic, respectively ([Meletiadis et al., 2010]).

[4] = test system: MDR P. aeruginosa clinical isolates; assay: Resistance phenotype (MICs of antibiotics) of MDR clinical isolates; format: cell-based, Pseudomonas aeruginosa; settings: Pseudomonas aeruginosa
[5] = test system: MDR E. coli clinical isolates; assay: as above; format: cell-based, Escherichia coli; settings: Escherichia coli, read-out: MIC
[6] = test system: MDR K. pneumoniae clinical isolates; assay: as above; format: cell-based, Klebsiella pneumoniae; settings: Klebsiella pneumoniae
[7] = test system: wild-type P. aeruginosa PAO1; assay: microbe, parasite or virus in culture; format: cell-based, Pseudomonas aeruginosa; settings: PAO1; for MICcombo: antibiotic with dUSTBβP 3 at 8 μg/mL; for MIC: Pseudomonas aeruginosa, 18 h, antibiotic alone (Supplementary Table 7), read-out: MICantibiotic
Source text: as §1

[8] = test system: MDR A. baumannii clinical isolates; assay: Resistance phenotype (MICs of antibiotics) of MDR clinical isolates; format: cell-based, Acinetobacter baumannii; settings: Acinetobacter baumannii, read-out: MIC

MIC [1]; 117029 [µg/mL]	MICcombo [2] [µg/mL]	MIC [2] [µg/mL]	MICcombo [3] [µg/mL]	MIC [3] [µg/mL]	MIC ([4]; 259-96196, read-out: MIC) [µg/mL]	MIC ([6]; 113250, read-out: MIC) [µg/mL]	MIC ([6]; 113254, read-out: MIC) [µg/mL]	MIC ([6]; 116381, read-out: MIC) [µg/mL]	MICcombo [7] [µg/mL]	MIC [7] [µg/mL]	Compound	MIC ([4]; 262-101856, read-out: MIC) [µg/mL]	MIC ([4]; 264-104354, read-out: MIC) [µg/mL]	MIC ([5]; 94393 (mcr-1 +)) [µg/mL]	MIC ([5]; 94474 (mcr-1 +)) [µg/mL]	MIC [5]; 107115 [µg/mL]	MIC [8]; 110193 [µg/mL]	MIC ([8]; AB027) [µg/mL]	MIC ([8]; AB031) [µg/mL]	other results
≤ 0.06	> 0.125	> 0.125	0.001	0.016	> 16	≤ 0.06	≤ 0.06	> 16	0.5	2 (≈ 4.98 µM)	COc1c(N2C[C@@H]3CCCN[C@@H]3C2)c(F)cc2c(=O)c(C(=O)O)cn(C3CC3)c12 [Moxifloxacin]	> 16	> 16	1 (≈ 2.49 µM)	16 (≈ 39.9 µM)	16 (≈ 39.9 µM)	≤ 1	8 (≈ 19.9 µM)	0.12 (≈ 0.299 µM)	MIC [1]; 118564: 0.12 µg/mL (≈ 0.299 µM); MIC [1]; 121187: 1 µg/mL (≈ 2.49 µM); MIC ([4]; 91433, read-out: MIC): 16 µg/mL (≈ 39.9 µM)
≤ 0.12	32	64	0.063	0.25	32 (≈ 73.5 µM)	≤ 0.12	≤ 0.12	16 (≈ 36.7 µM)	4	4 (≈ 9.19 µM)	C[C@H]1[C@H](NC(=O)/C(=N\OC(C)(C)C(=O)O)c2csc(N)n2)C(=O)N1S(=O)(=O)O [Aztreonam]	32 (≈ 73.5 µM)	64 (≈ 147 µM)	≤ 0.12	≤ 0.12	> 64	–	–	–	MIC [1]; 118564: ≤ 0.12 µg/mL; MIC [1]; 121187: ≤ 0.12 µg/mL; MIC ([4]; 114228, read-out: MIC): 32 µg/mL (≈ 73.5 µM)
–	256	> 256	8	16	–	–	–	–	2	32 (≈ 232 µM)	C[C@@H]1O[C@@H]1P(=O)(O)O [Fosfomycin]	–	–	–	–	–	–	–	–	–
–	1	16	0.25	64	–	–	–	–	–	256 (≈ 349 µM)	CC[C@H]1OC(=O)[C@H](C)[C@@H](O[C@H]2C[C@@](C)(OC)[C@@H](O)[C@H](C)O2)[C@H](C)[C@@H](O[C@@H]2O[C@H](C)C[C@H](N(C)C)[C@H]2O)[C@](C)(O)C[C@@H](C)C(=O)[C@H](C)[C@@H](O)[C@]1(C)O [Erythromycin]	–	–	–	–	–	–	–	–	–
–	> 128	> 128	64	512	–	–	–	–	32	128 (≈ 441 µM)	COc1cc(Cc2cnc(N)nc2N)cc(OC)c1OC [Trimethoprim]	–	–	–	–	–	–	–	–	–

Compound	MIC [1]; 117029 [µg/mL]	MICcombo [2] [µg/mL]	MIC [2] [µg/mL]	MICcombo [3] [µg/mL]	MIC [3] [µg/mL]	MIC ([4]; 259-96196, read-out: MIC) [µg/mL]	MIC ([6]; 113250, read-out: MIC) [µg/mL]	MIC ([6]; 113254, read-out: MIC) [µg/mL]	MIC ([6]; 116381, read-out: MIC) [µg/mL]	MICcombo [7] [µg/mL]	MIC [7] [µg/mL]	MIC ([4]; 262-101856, read-out: MIC) [µg/mL]	MIC ([4]; 264-104354, read-out: MIC) [µg/mL]	MIC ([5]; 94393 (mcr-1 +)) [µg/mL]	MIC ([5]; 94474 (mcr-1 +)) [µg/mL]	MIC [5]; 107115 [µg/mL]	MIC [8]; 110193 [µg/mL]	MIC ([8]; AB027) [µg/mL]	MIC ([8]; AB031) [µg/mL]	other results
C[C@H]1COc2c(N3CCN(C)CC3)c(F)cc3c(=O)c(C(=O)O)cn1c23 [Levofloxacin]	–	0.25	0.25	0.002	0.008	256 (≈ 708 µM)	–	–	–	0.25	0.5 (≈ 1.38 µM)	64 (≈ 177 µM)	64 (≈ 177 µM)	1 (≈ 2.77 µM)	32 (≈ 88.6 µM)	32 (≈ 88.6 µM)	≤ 1	8 (≈ 22.1 µM)	0.25 (≈ 0.692 µM)	MIC [6]; 113250: 0.125 µg/mL (≈ 0.346 µM); MIC [6]; 113254: 0.0625 µg/mL (≈ 0.173 µM); MIC [6]; 116381: 128 µg/mL (≈ 354 µM); MIC ([8]; LAC-4): 2 µg/mL (≈ 5.53 µM)
O=C(N[C@H](CO)[C@H](O)c1ccc([N+](=O)[O-])cc1)C(Cl)Cl [Chloramphenicol]	8 (≈ 24.8 µM)	64	128	1	2	–	4 (≈ 12.4 µM)	2 (≈ 6.19 µM)	> 512	2	32 (≈ 99 µM)	2050 (≈ 6340 µM)	4100 (≈ 12700 µM)	4 (≈ 12.4 µM)	4 (≈ 12.4 µM)	512 (≈ 1580 µM)	128 (≈ 396 µM)	128 (≈ 396 µM)	128 (≈ 396 µM)	MIC ([4]; 259-96196): 1020 µg/mL (≈ 3170 µM); MIC ([4]; 91433, read-out: MIC): 8 µg/mL (≈ 24.8 µM); MIC ([8]; LAC-4): 32 µg/mL (≈ 99 µM)
